Source: patent US11344009B2, “All sterile males of culicine mosquitoes: a method of creation” (priority 2014, dated 2022)

Columns and labels:
Tra-2 = experiment: Q-PCR of Tra-2 knockdown level in Tra-2 RNAi/Tet-on transgenic males induced by Dox; format: in vivo, Aedes aegypti
Experimental: (§1) The Ae. aegypti strain named Hanoi1 was transformed with a Tra-2 RNAi (long dsmRNA) construct. This construct was assembled with rtTA(pTet-on advanced) and pTre-tight regulatory system as mentioned in Example 1. The strain was challenged with Dox three different concentrations (0.3 mg/L; 3 mg/L and 30 mg/L) between the third larvae stage and 3 day old adult. The males from each Dox concentration challenge were divided into two groups; one group was Q-PCR to reveal the knockdown level of Tra-2. The other group was outcrossed with wild type females. Total RNA from Hanoi 1 wild type males and Tra-2 RNAi/Hanoi 1 transgenic males were isolated in pools of 5 males in 3 biological replicates. The primers used for Actin5C (endogenous reference gene) were F: (5′-[…]-3′) (SEQ ID NO: 53) and R: (5′-[…]-3′) (SEQ ID NO: 54) which produced a 125 bp fragment. Primers used for amplifying Tra-2, which produced a 125 bp fragment nearby the Tra-2 RNAi target site, were: Forward: (5′ […] 3′) (SEQ ID NO: 55) and Reverse: (5′ […] 3′) (SEQ ID NO: 56). Three biological replicates were carried out in each Dox condition. The knockdown of expression levels were calculated by the relative standard curve method (Applied Biosystems), in which Act5C as an endogenous reference and wild type Hanoi 1 as an exogenous calibrator. PCR cycle was 95° C. for 15 mins; 45 cycles of 10 sec at 95° C., 10 sec at XC, 20 sec at 72° C., plate reading. X is annealing temperature, of which 59° C. for the reference gene Actin5C and 55° C. was used for Tra-2 primers. […] 0.3 mg/L caused a slight difference in comparison with wild type (96.98% wild type). […] See details in FIG. 2.

[1] = tested on: Ae. aegypti strain Hanoi1 transformed with Tra-2 RNAi (long dsmRNA) construct; experiment: Outcross of Dox-induced homozygous Tra-2 RNAi transgenic males with wild type virgin females, sex ratio of the crosses; format: in vivo, Aedes aegypti
Experimental: as §1
10 homozygous males (3 day old) from each concentration were crossed with 10 wild type virgin females.

[2] = tested on: Ae. aegypti strain (Hanoi1); experiment: Transient expression of long dsmRNA Tra-2 RNAi construct (AaKLC2.1-long-02) injected into embryos; female lethality induced by different Dox concentrations; format: in vivo, Aedes aegypti; conditions: for Hatched rate (hatched/injected embryos): 500 embryos injected with AaKLC2.1-long-02
From the text: In this example, we show the transient expression of a Tra-2 RNAi construct which created long dsmRNAs. The detail method to create this construct was described in Example 4. The promoter driving rtTA protein was AaKLC2.1. In the presence of doxycycline (Dox), Tet-On Advanced binds to the tetracycline response element in pTre-tight, and produces high-level tran-scription of the downstream gene. Ae. aegypti strain (Hanoi1) was fed on blood containing three different Dox concentrations to produce eggs containing different Dox doses (mg/litre). The construct named AaKLC2.1-long-02 after Maxiprep purification was diluted in 1^x injection buffer at 1.6 μg/μl. Embryos were desiccated briefly in 50 sec and stuck into a plastic cover slip via a piece of double sticky tape. The Voltalef oil was used to cover the embryos. After injection, the cover slip was then immediately transferred into a cover slip staining rack which was kept in a sealed plastic box with 100% humidity at 27° C. for 3-4 days and then hatched in Dox deoxygenated water. 500 embryos were injected in each Dox concentration. Larvae were reared under standard conditions. Three different Dox concentrations which were equivalent to the concentrations in blood meals were added to the rearing water. The sex ratio among survivors of each Dox concentration were shown in the below table.

[3] = tested on: wMel Wolbachia in Ae. albopictus strains (Hanoi 1 and Laos2); experiment: Dox challenge of Wolbachia trans-infected lines, PCR re-test for presence of Wolbachia (wsp primers 81F/691R); format: in vivo, Aedes albopictus; conditions: for Pupae (number from 50 3rd-4th larvae on Dox) / 3 day old adult (on Dox), number: Dox 30 mg/L; for 3 day old adult (on Dox), number: 4-5 days from third larvae to 3 day old adults; for 81F/691R PCR test, number with Wolbachia / 81F/691R PCR test, share with Wolbachia: after Dox 30 mg/L challenge
Experimental: Ae. albopictus strains (Hanoi 1 and Laos2) were trans-infected with Wolbachia from a Drosophila line (Oregon-R). This fly carries wMel Wolbachia. Drosophila embryos were collected as mentioned above. 1-2 day old virgin females were anaesthetized and microinjected directly in the thorax. […] These lines were maintained at a standard condition and challenged with the presence of Dox (30 mg/L) in 4-5 days from the third larvae to 3 day old adults. They were PCR re-tested for the presence of Wolbachia after the challenge using universal wsp primers 81F and 691R^38.

## C[C@H]1c2cccc(O)c2C(=O)C2=C(O)[C@]3(O)C(=O)C(C(N)=O)=C(O)[C@@H](N(C)C)[C@@H]3[C@@H](O)[C@@H]21 [Dox, Doxycycline]
Tra-2; Dox 0.3 mg/L, third larvae stage to 3 day old adult
  Expression level of Tra-2 in males: 96.98 % wild type
Tra-2; Dox 3 mg/L, third larvae stage to 3 day old adult
  Expression level of Tra-2 in males: 73.7 % wild type
Tra-2; Dox 30 mg/L, after 5 days treatment
  Expression level of Tra-2 in males: 33.26 % wild type
[1]; males induced at 0.3 mg/L Dox
  Hatch rate (value in brackets): 95.40
  Male ratio (value in brackets): 51.53
[1]; males induced at 3 mg/L Dox
  Hatch rate (value in brackets): 90.60
  Male ratio (value in brackets): 64.88
[1]; males induced at 30 mg/L Dox
  Hatch rate (value in brackets): 91.60
  Male ratio (value in brackets): 93.47
[2]; 0.3 mg of Dox/L
  Hatched rate: (24.4) %
  Hatched rate (hatched/injected embryos): 122/500
[2]; 3 mg of Dox/L
  Hatched rate: (18.6) %
  Hatched rate (hatched/injected embryos): 93/500
[2]; 30 mg of Dox/L
  Hatched rate: (14.8) %
  Hatched rate (hatched/injected embryos): 74/500
[3]; wMel/Ae.albopictus Hanoi 1
  Pupae (number from 50 3rd-4th larvae on Dox): 50
  3 day old adult (on Dox), number: 49
  81F/691R PCR test, number with Wolbachia: 49
  81F/691R PCR test, share with Wolbachia: 100%
[3]; wMel/Ae.albopictus Laos2
  Pupae (number from 50 3rd-4th larvae on Dox): 50
  3 day old adult (on Dox), number: 50
  81F/691R PCR test, number with Wolbachia: 50
  81F/691R PCR test, share with Wolbachia: 100%
